Where only a bound is given, the exact number is not on record here.

A word on the IC50: it is the point on the concentration scale where inhibition reaches its midpoint.

For assay [1], the target named is T1, Human Aryl Hydrocarbon Receptor (AhR) (Homo sapiens, UniProt P35869).
T1 construct: purchased INDIGO Bioscience #1B06001-32; host or cells: AhR Reporter Cell (kit's proprietary reporter cells)
T1 sequence (P35869 11-848): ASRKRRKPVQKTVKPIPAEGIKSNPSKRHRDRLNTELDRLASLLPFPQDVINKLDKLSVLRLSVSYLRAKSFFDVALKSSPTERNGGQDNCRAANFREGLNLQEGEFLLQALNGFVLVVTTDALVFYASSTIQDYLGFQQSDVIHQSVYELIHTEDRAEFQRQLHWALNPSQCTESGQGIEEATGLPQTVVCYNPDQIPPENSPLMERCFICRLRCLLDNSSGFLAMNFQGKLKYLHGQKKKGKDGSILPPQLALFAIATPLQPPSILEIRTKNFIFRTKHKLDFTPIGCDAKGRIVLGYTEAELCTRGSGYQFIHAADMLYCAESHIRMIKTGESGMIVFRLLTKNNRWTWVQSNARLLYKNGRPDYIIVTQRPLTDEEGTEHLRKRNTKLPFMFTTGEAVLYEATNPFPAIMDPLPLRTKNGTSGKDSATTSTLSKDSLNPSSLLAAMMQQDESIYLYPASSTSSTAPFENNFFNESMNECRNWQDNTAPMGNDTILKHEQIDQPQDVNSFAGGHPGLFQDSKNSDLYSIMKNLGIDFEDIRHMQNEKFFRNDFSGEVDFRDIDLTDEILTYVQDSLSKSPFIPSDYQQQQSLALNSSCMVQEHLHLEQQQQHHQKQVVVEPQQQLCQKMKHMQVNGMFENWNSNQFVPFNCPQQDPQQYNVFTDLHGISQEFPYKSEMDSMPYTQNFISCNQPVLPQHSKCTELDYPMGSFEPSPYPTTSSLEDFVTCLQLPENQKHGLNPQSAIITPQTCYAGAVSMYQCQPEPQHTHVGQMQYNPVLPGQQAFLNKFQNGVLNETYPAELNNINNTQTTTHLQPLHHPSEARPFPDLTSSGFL
Put plainly: AHR antagonist reporter assay in human cell line (INDIGO AhR Reporter Assay System, kynurenic acid activated). It counts as cell-based. As to conditions: 200 μM kynurenic acid, 24 hours, luciferase; read-out: AhR Reporter Assay KA Antagonist Mode: IC50. The protocol:
The AhR reporter assay was performed following the protocol of the Human Aryl Hydrocarbon Receptor (AhR) Reporter Assay System (INDIGO Bioscience, #1B06001-32). AhR Reporter Cell was thawed and pre-incubated in Cell Recovery Medium (CRM) for 6 hours. The media was then removed and the cells were incubated with Compound Screening Medium (CSM) supplemented with 200 μM kynurenic acid for 24 hours in the absence (negative control) or presence of increasing concentrations of test compounds (typical dilution: […], 3.2 nM, 16 nM, 80 nM, 400 nM, 2 μM, 10 μM in duplicates). For positive inhibition control, cells activated with 200 μM kynurenic acid were incubated in the presence of literature AHR antagonists; alternatively un-activated cells were used as positive inhibition control. Following 24 hours incubation, the media was removed and Luciferase Detection Reagent (LDR) added. The firefly luciferase activity was quantified using a plate reader. Results were normalized by positive and negative controls.
For orientation: A reporter such as luciferase makes a cellular process visible.

Assay [2] deals with AHR-regulated gene CYP1A1 in human monocytic U937 cell line. Put plainly: AHR-regulated CYP1A1 expression in U937 cells (qPCR, kynurenic acid stimulated). The settings on record: U-937, 200 μM KA, 16 hours, CYP1A1 vs GAPDH, read-out: Cyp ANATAG mode assay: IC50. It counts as cell-based. The protocol: To evaluate the AHR inhibitory activity of the test compounds, quantitative PCR analysis was used to determine expression level of the AHR-regulated gene CYP1A1 in a human monocytic U937 cell line upon stimulation of 200 μM kynurenic acid (KA) in the absence or presence of AHR inhibitor. U937 cells were seeded at a concentration of 5×10^5 cells/well in 200 μL of growth medium in 96-well cell culture microplates. CYP1A1 expression was induced with 200 μM KA (positive control) in the absence or presence of the test compounds for 16 hours. Human U937 cells were typically incubated with eight different concentrations of test compounds (typical dilution: […], 3.2 nM, 16 nM, 80 nM, 400 nM, 2 μM, 10 μM) and analyzed in duplicate on the same cell culture microplate. After stimulation, the media was removed, the cell RNA was isolated using RNeasy Mini Kit (Qiagen, 74104) and reverse-transcribed to cDNA using PrimeScript RT reagent Kit (Perfect Real Time) (TaKaRa, RR037A). Unstimulated cells were used as the negative control. Taqman probes for human CYP1A1 (Hs01054797_g1) and human GAPDH (Hs02786624_g1) were used to analyze fold expression of CYP1A1 of GAPDH.

Consider `O=C(N[C@H]1CCCCNC1=O)c1cc(-c2ccc(Cl)cc2)nn(-c2cccc(F)c2)c1=O` [28 - *stereo-pure], for which the IC50 in assay [1] and in assay [2] was below 100 nM each time.
As for `Cn1cc(-n2nc(-c3ccc(Cl)cc3)cc(C(=O)N[C@H]3CCCCNC3=O)c2=O)cn1` [59 - *stereo-pure], the IC50 in assay [1] and in assay [2] was below 100 nM each time.
For `CNC(=O)C(C)NC(=O)c1cc(-c2ccc(Cl)cc2)nn(-c2cccc(F)c2)c1=O` (stereo not drawn) [Compound 12], the half-inhibitory concentration (IC50) in assay [1] and in assay [2] was 100 to 400 nM throughout.
With `CC(NC(=O)c1cc(-c2ccc(Cl)cc2)nn(-c2cccc(F)c2)c1=O)C(=O)N(C)C` (stereo not drawn) [Compound 13], the figures for the IC50 in assay [1] and in assay [2] were below 100 nM and 100 to 400 nM, respectively.
Taken in the same sequence, the figures for `COCC(C)NC(=O)c1cc(-c2ccc(Cl)cc2)nn(-c2cnn(C)c2)c1=O` (stereo not drawn) [Compound 32] were below 100 nM and below 100 nM.
As for `COC[C@H](C)NC(=O)c1cc(-c2ccc(Cl)cc2)nn(-c2cn[nH]c2)c1=O` [Compound 62], the IC50 in assay [1] was 100 to 400 nM; in assay [2] it was below 100 nM.
For `COC[C@H](C)NC(=O)c1cc(-c2ccc(C(F)(F)F)cc2)nn(-c2cnn(C)c2)c1=O` [Compound 70], in that order: below 100 nM and below 100 nM.
Turning to `COC[C@H](C)NC(=O)c1cc(-c2ccc(C(=O)N(C)C)cc2)nn(-c2cnn(C)c2)c1=O` [Compound 90], the concentration for half-maximal inhibition (IC50) in assay [1] and in assay [2] was below 100 nM each time.
As to `CN(C)C(=O)C(C)(C)NC(=O)c1cc(-c2ccc(Cl)cc2)nn(-c2cnn(C)c2)c1=O` [Compound 94], the IC50 in assay [1] and in assay [2] was below 100 nM in each case.
In the case of `CNC(=O)C(C)(C)NC(=O)c1cc(-c2ccc(Cl)cc2)nn(-c2cnn(C)c2)c1=O` [Compound 95], the half-inhibitory concentration (IC50) in assay [1] and in assay [2] was below 100 nM in each case.
In the case of `COC[C@H](C)NC(=O)c1cc(-c2ccc(Cl)cc2)nn(-c2cccc(F)c2)c1=O` [Compound 97], the IC50 in assay [1] and in assay [2] was below 100 nM throughout.
Regarding `CNC(=O)[C@H](C)NC(=O)c1cc(-c2ccc(Cl)cc2)nn(-c2cccc(F)c2)c1=O` [Compound 98], the IC50 in assay [1] and in assay [2] was below 100 nM each time.
For the molecule `C[C@H](NC(=O)c1cc(-c2ccc(Cl)cc2)nn(-c2cccc(F)c2)c1=O)C(=O)N(C)C` [Compound 99], the IC50 in assay [1] and in assay [2] was below 100 nM in each case.
Consider `CNC(=O)[C@H](C)NC(=O)c1cc(-c2ccc(Cl)cc2)nn(-c2cnn(C)c2)c1=O` [Compound 100], for which the IC50 in assay [1] and in assay [2] was below 100 nM in each case.
In the case of `COC[C@H](C)NC(=O)c1cc(-c2ccc3c(c2)OCC3)nn(-c2cnn(C)c2)c1=O` [Compound 112], the IC50 in assay [1] is below 100 nM; in assay [2], 100 to 400 nM.
As to `COC[C@H](C)NC(=O)c1cc(-c2ccc3cc(OC)ccc3c2)nn(-c2cnn(C)c2)c1=O` [Compound 113], the concentration for half-maximal inhibition (IC50) in assay [1] and in assay [2] was below 100 nM throughout.
For `COC[C@H](C)NC(=O)c1cc(-c2ccc3cc(F)ccc3c2)nn(-c2cnn(C)c2)c1=O` [Compound 120], the IC50 in assay [1] and in assay [2] was below 100 nM each time.
For `COC[C@H](C)NC(=O)c1cc(-c2ccc3c(C)nn(C)c3c2)nn(-c2cnn(C)c2)c1=O` [Compound 123], the IC50 in assay [1] and in assay [2] was below 100 nM throughout.
Consider `COC[C@H](C)NC(=O)c1cc(-c2cnc(-c3ccc(Cl)cc3)nc2)nn(-c2cnn(C)c2)c1=O` [Compound 139], for which the IC50 in assay [1] and in assay [2] was below 100 nM throughout.
Turning to `C[C@H](NC(=O)c1cc(-c2ccc(OC(F)(F)F)cc2)nn(-c2cnn(C)c2)c1=O)C(=O)N(C)C` [Compound 146], the IC50 in assay [1] and in assay [2] was below 100 nM throughout.
On to `C[C@H](NC(=O)c1cc(-c2ccc(-c3ccc(Cl)cc3)cc2)nn(-c2cnn(C)c2)c1=O)C(=O)N(C)C` [Compound 147], for which the IC50 in assay [1] and in assay [2] was below 100 nM throughout.
With `C[C@@H](CO)NC(=O)c1cc(-c2ccc(-c3ccc(Cl)cc3)cc2)nn(-c2cnn(C)c2)c1=O` [Compound 148], the IC50 in assay [1] and in assay [2] was below 100 nM each time.
Turning to `COC[C@H](C)NC(=O)c1cc(-n2ccc3ccccc32)nn(-c2cnn(C)c2)c1=O` [Compound 151], the IC50 in assay [1] is above 400 nM.
The same measure, in the same setting: the result for `COC[C@H](C)NC(=O)c1cc(C2CCC(C)CC2)nn(-c2cnn(C)c2)c1=O` (stereo partly drawn) [Compound 152] reads above 400 nM; that for `COC[C@H](C)NC(=O)c1cc(-c2cc3c(O)ncnc3cc2F)nn(-c2cnn(C)c2)c1=O` [Compound 154], above 400 nM; that for `COC[C@H](C)NC(=O)c1cc(-n2nnc3ccccc32)nn(-c2cnn(C)c2)c1=O` [Compound 158], above 400 nM.
The same measure, in the same setting: the result for `COC[C@H](C)NC(=O)c1cc(-n2nc3ccccc3n2)nn(-c2cnn(C)c2)c1=O` [Compound 159] reads 100 to 400 nM; that for `C[C@@H](CO)NC(=O)c1cc(-n2ccc(-c3ccc(Cl)cc3)n2)nn(-c2cnn(C)c2)c1=O` [Compound 162], below 100 nM; that for `CN(C)C(=O)C(C)(C)NC(=O)c1cc(-c2ccc(C(F)(F)F)nc2)nn(-c2cnn(C)c2)c1=O` [Compound 166], above 400 nM.
For the molecule `CNC(=O)C(C)(C)NC(=O)c1cc(-c2ccc(OC(F)(F)F)cc2)nn(-c2cnn(C)c2)c1=O` [Compound 174], the IC50 in assay [1] lay in the range of 100 to 400 nM.
On to `C[C@H](NC(=O)c1cc(-c2ccc(C(=O)N(C)C)cc2)nn(-c2cccc(F)c2)c1=O)C(=O)N(C)C` [Compound 178], for which, in assay [1], the IC50 is above 400 nM.
Take `C[C@@H](CO)NC(=O)c1cc(-c2ccc(C(=O)N(C)C)cc2)nn(-c2cccc(F)c2)c1=O` [Compound 179]: the IC50 in assay [1] is above 400 nM.
On the same count and under the same terms, the result for `CNC(=O)[C@H](C)NC(=O)c1cc(-c2ccc(C(=O)N(C)C)cc2)nn(-c2cccc(F)c2)c1=O` [Compound 180] reads below 100 nM.
Same read-out and setting: for `C[C@H](NC(=O)c1cc(-c2cnc(-c3ccc(Cl)cc3)nc2)nn(-c2cnn(C)c2)c1=O)C(=O)N(C)C` [Compound 182] the value was below 100 nM; for `C[C@@H](CO)NC(=O)c1cc(-c2cnc(-c3ccccc3)nc2)nn(-c2cnn(C)c2)c1=O` [Compound 187], below 100 nM.
Same read-out and setting: the result for `C[C@H](NC(=O)c1cc(-n2ncc(-c3ccc(Cl)cc3)n2)nn(-c2cnn(C)c2)c1=O)C(=O)N(C)C` [Compound 188] reads above 400 nM.
With `C[C@H](NC(=O)c1cc(-n2cc(-c3ccc(Cl)cc3)nn2)nn(-c2cnn(C)c2)c1=O)C(=O)N(C)C` [Compound 189], the IC50 in assay [1] was above 400 nM.
Still for that read-out and setting: the result for `CNC(=O)[C@H](C)NC(=O)c1cc(-n2ncc(-c3ccc(Cl)cc3)n2)nn(-c2cnn(C)c2)c1=O` [Compound 190] reads above 400 nM.
On to `C[C@@H](CO)NC(=O)c1cc(-c2ccc(-c3ccc4ncccc4c3)nc2)nn(-c2cnn(C)c2)c1=O` [Compound 196], for which the IC50 in assay [1] was above 400 nM.
The same measure, in the same setting: for `C[C@@H](CO)NC(=O)c1cc(N2CCN(c3ccccc3F)CC2)nn(-c2cnn(C)c2)c1=O` [Compound 209] the value was below 100 nM; for `C[C@@H](CO)NC(=O)c1cc(N2CCN(c3cccc(F)c3)CC2)nn(-c2cnn(C)c2)c1=O` [Compound 210], below 100 nM.

(Values after patent US20240351988A1, “ARYL HYDROCARBON RECEPTOR MODULATORS AND THEIR USE IN THE TREATMENT OF DISEASES AND DISORDERS” (Allianthera (Suzhou) Biopharmaceutical Co., Ltd., priority 2021, published 2024).)
